Laboratory results from patent publication US10000488B2, “Heterocyclic compound” (TAKEDA PHARMACEUTICAL COMPANY LIMITED, priority 2014, dated 2018).

How the values were obtained:
RORγt [1] = target: T1, RORγt (Homo sapiens, UniProt P51449); test: Jurkat reporter test (human IL-17 ROR response element luciferase reporter, RORγt vector); type: cell-based; conditions: test compound 3 μM; Jurkat cells; read-out: luminescence level inhibitory rate (%) at test compound 3 μM
T1 sequence (P51449 1-497 isoform P51449-2): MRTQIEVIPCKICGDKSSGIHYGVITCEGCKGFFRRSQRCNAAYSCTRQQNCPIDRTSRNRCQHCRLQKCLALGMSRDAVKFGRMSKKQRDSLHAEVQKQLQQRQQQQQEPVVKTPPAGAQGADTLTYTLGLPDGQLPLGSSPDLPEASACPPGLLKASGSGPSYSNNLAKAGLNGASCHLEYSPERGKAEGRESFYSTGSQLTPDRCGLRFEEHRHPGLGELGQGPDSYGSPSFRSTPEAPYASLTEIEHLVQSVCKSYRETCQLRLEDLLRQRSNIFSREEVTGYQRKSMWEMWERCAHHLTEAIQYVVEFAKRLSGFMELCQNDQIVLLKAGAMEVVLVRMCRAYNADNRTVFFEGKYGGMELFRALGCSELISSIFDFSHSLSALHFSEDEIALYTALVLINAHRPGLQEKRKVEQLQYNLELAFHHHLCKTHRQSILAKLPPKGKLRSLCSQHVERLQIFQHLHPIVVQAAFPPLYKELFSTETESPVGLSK
Experimental: The Jurkat cells used for the reporter test were cultured in a culture medium (RPMI (Invitrogen), 10% FCS (AusGeneX), 100 U/mL penicillin, 100 μg/mL streptomycin). On the day of the test, 4×10^7 cells were recovered by a centrifugal operation (1000 rpm, for 5 min) and suspended in PBS (phosphate buffered saline) (Invitrogen). Thereafter, the cells were recovered again by a centrifugal operation, and suspended in 2 mL of R buffer (NEON transfection kit, Invitrogen). […] Gene transfer was performed by Electroporation apparatus (NEON, Invitrogen) under the conditions of pulse voltage 1350 V, interval 10 milliseconds, number of times 3. The cells after gene transfer were suspended in 40 mL of a reaction medium (RPMI, 10% Lipid reduced FCS (HyClone), 10 mM HEPES (pH 7.5), 100 U/mL penicillin, 100 μg/mL streptomycin, 5 μM lovastatin), and plated in a 96 well plate by 90 μL. A test compound diluted with the reaction medium was added by 10 μL, and the cells were cultured overnight in an incubator. Bright-Glo (Promega) was added by 100 μL, and the mixture was stirred at room temperature for 10 min, and the luminescence level was measured by Envision (PerkinElmer).

RORγt [2] = target: T1, RORγt; test: Cofactor recruitment test (Alpha Screen, biotinylated SRC-1 peptide); type: biochemical; conditions: read-out: signal value inhibitory rate (%) at test compound 1 μM
Experimental: Cofactor Recruitment Test
Cofactor recruitment test was performed by Alpha Screen (Histidine Detection Kit, PerkinElmer) method. First, a test compound was diluted with an assay buffer (50 mM Tris-HCl (pH 7.5), 50 mM KCl, 1 mM DTT, 0.1% BSA) and added to a 384 well plate by 5 μL. […] The mixture was stood in a dark place for 1 hr, and the signal value was measured by Envision (PerkinElmer).

RORγt [3] = target: T1, RORγt; test: RORγt binding test using fluorescent-labeled synthetic ligand (TR-FRET); conditions: test compound 1 μM; read-out: binding inhibitory rate (%) of fluorescent-labeled synthetic ligand to RORγt at test compound 1 μM
Experimental: RORγt Binding Test Using Fluorescent-Labeled Synthetic Ligand
The binding activity of the test compound to RORγt was measured by a time resolved fluorescence resonance energy transfer (TR-FRET) utilizing histidine-tagged RORγt, fluorescent-labeled synthetic ligand, and terbium-labeled anti-histidine tag antibody (Invitrogen). First, a test compound diluted with an assay buffer (20 mM Tris-HCl (pH 7.5), 100 mM NaCl, 1 mM DTT, 0.1% BSA) was added to a 384 well plate by 3 μL. Then, RORγt diluted with an assay buffer to 240 nM was added by 3 μL, after which fluorescent-labeled synthetic ligand diluted with the assay buffer to 12 μM was added by 3 μL, and the mixture was stood at room temperature for 20 min. Thereafter, a terbium-labeled anti-histidine tag antibody diluted with the assay buffer to 8 nM was added by 3 μL. The mixture was stood at room temperature for 20 min, and fluorescence intensity (excitation wavelength 320 nm, fluorescence wavelength 520 nm, delay time 100 microseconds) was measured by Envision (PerkinElmer).

| SMILES | inhibition at 3 µM (RORγt [1]) | inhibition at 1 µM (RORγt [2]) | inhibition at 1 µM (RORγt [3]) |
| --- | --- | --- | --- |
| CC(C)n1c(=O)n(CC2CC2)c(=O)c2cc(NC(=O)N3CCC[C@@H](NC(=O)c4ccc5c(c4)CCO5)C3)ccc21 [Example 251, (3R)-N-(3-(cyclopropylmethyl)-1-isopropyl-2,4-dioxo-1,2,3,4-tetrahydroquinazolin-6-yl)-3-((2,3-dihydro-1-benzofuran-5-ylcarbonyl)amino)piperidine-1-carboxamide] | 102% | 105% | 102% |
| CC(C)n1c(=O)n(CC2CC2)c(=O)c2cc(NC(=O)N3CCC[C@@H](NC(=O)c4ccc(C#N)nc4)C3)ccc21 [Example 223, 6-cyano-N-((3R)-1-((3-(cyclopropylmethyl)-1-isopropyl-2,4-dioxo-1,2,3,4-tetrahydroquinazolin-6-yl)carbamoyl)piperidin-3-yl)nicotinamide] | 102% | 111% | 102% |
| CC(C)n1c(=O)n(CC2CC2)c(=O)c2cc(NC(=O)N3CCO[C@@H](C(=O)Nc4ccc(C#N)c(F)c4)C3)ccc21 [Example 102, (2R)-N^2-(4-cyano-3-fluorophenyl)-N^4-(3-(cyclopropylmethyl)-1-isopropyl-2,4-dioxo-1,2,3,4-tetrahydroquinazolin-6-yl)morpholine-2,4-dicarboxamide] | 104% | 102% | 101% |
| CC(C)n1c(=O)n(CC2CC2(F)F)c(=O)c2cc(NC(=O)N3CCOC(C(=O)Nc4cc(Cl)c(C#N)cc4F)C3)c(F)cc21 (mixture of isomers) [Example 348, (2R)—N^2-(5-chloro-4-cyano-2-fluorophenyl)-N^4-(3-((2,2-difluorocyclopropyl)methyl)-7-fluoro-1-isopropyl-2,4-dioxo-1,2,3,4-tetrahydroquinazolin-6-yl)morpholine-2,4-dicarboxamide (mixture of two stereoisomers)] | 107% | 107% | 102% |
| CC(C)n1c(=O)n(CC2CC2)c(=O)c2cc(NC(=O)N3CCC[C@@H](NC(=O)c4ccc(C#N)cc4)C3)ccc21 [Example 218, (3R)-3-((4-cyanobenzoyl)amino)-N-(3-(cyclopropylmethyl)-1-isopropyl-2,4-dioxo-1,2,3,4-tetrahydroquinazolin-6-yl)piperidine-1-carboxamide] | 103% | 111% | 102% |
| CC(C)n1c(=O)n(CC2CCCO2)c(=O)c2cc(NC(=O)N3CCO[C@@H](C(=O)Nc4ccc(C#N)c(Cl)c4)C3)c(F)cc21 (stereo partly drawn) [Example 333, (2R)—N^2-(3-chloro-4-cyanophenyl)-N^4-(7-fluoro-1-isopropyl-2,4-dioxo-3-(tetrahydrofuran-2-ylmethyl)-1,2,3,4-tetrahydroquinazolin-6-yl)morpholine-2,4-dicarboxamide] | 106% | 107% | 101% |
| CC(C)n1c(=O)n(CC2CC2)c(=O)c2cc(NC(=O)N3CCO[C@@H](C(=O)Nc4cnc(C#N)c(Cl)c4)C3)c(F)cc21 [Example 266, (2R)-N^2-(5-chloro-6-cyanopyridin-3-yl)-N^4-(3-(cyclopropylmethyl)-7-fluoro-1-isopropyl-2,4-dioxo-1,2,3,4-tetrahydroquinazolin-6-yl)morpholine-2,4-dicarboxamide] | 103% | 108% | 102% |

The next lines start with the values.

| inhibition at 3 µM (RORγt [1]) | inhibition at 1 µM (RORγt [2]) | inhibition at 1 µM (RORγt [3]) | SMILES |
| --- | --- | --- | --- |
| 108% | 107% | 101% | COC(=O)N1Cc2ccc(C(=O)N[C@@H]3CCCN(C(=O)Nc4cc5c(=O)n(CC6CC6)c(=O)n(C(C)C)c5cc4F)C3)cc2C1 [Example 343, methyl 5-(((3R)-1-((3-(cyclopropylmethyl)-7-fluoro-1-isopropyl-2,4-dioxo-1,2,3,4-tetrahydroquinazolin-6-yl)carbamoyl)piperidin-3-yl)carbamoyl)-1,3-dihydro-2H-isoindole-2-carboxylate] |
| 103% | 105% | 102% | Cc1ccc(C(=O)N[C@@H]2CCCN(C(=O)Nc3ccc4c(c3)c(=O)n(CC3CC3)c(=O)n4C(C)C)C2)s1 [Example 242, (3R)-N-(3-(cyclopropylmethyl)-1-isopropyl-2,4-dioxo-1,2,3,4-tetrahydroquinazolin-6-yl)-3-(((5-methyl-2-thienyl)carbonyl)amino)piperidine-1-carboxamide] |
| 101% | 107% | 102% | COc1ccc(C(=O)N[C@@H]2CCCN(C(=O)Nc3cc4c(=O)n(CC5CC5)c(=O)n(C(C)C)c4cc3F)C2)c(F)c1 [Example 291, (3R)-N-(3-(cyclopropylmethyl)-7-fluoro-1-isopropyl-2,4-dioxo-1,2,3,4-tetrahydroquinazolin-6-yl)-3-((2-fluoro-4-methoxybenzoyl)amino)piperidine-1-carboxamide] |
| 107% | 92% | 98% | CC(C)n1c(=O)n(CC2CC2)c(=O)c2cc(NC(=O)N3CCC[C@@H](NC(=O)c4ccc5c(c4)CCN(C(=O)OC(C)(C)C)C5)C3)c(F)cc21 [Example 340, tert-butyl 6-(((3R)-1-((3-(cyclopropylmethyl)-7-fluoro-1-isopropyl-2,4-dioxo-1,2,3,4-tetrahydroquinazolin-6-yl)carbamoyl)piperidin-3-yl)carbamoyl)-3,4-dihydroisoquinoline-2 (1H)-carboxylate] |
| 101% | 108% | 102% | Cc1ccc(F)c(C(=O)N[C@@H]2CCCN(C(=O)Nc3cc4c(=O)n(CC5CC5)c(=O)n(C(C)C)c4cc3F)C2)c1 [Example 283, (3R)-N-(3-(cyclopropylmethyl)-7-fluoro-1-isopropyl-2,4-dioxo-1,2,3,4-tetrahydroquinazolin-6-yl)-3-((2-fluoro-5-methylbenzoyl)amino)piperidine-1-carboxamide] |
| 102% | 112% | 102% | CC(C)n1c(=O)n(CC2CC2)c(=O)c2cc(NC(=O)N3CCC[C@@H](NC(=O)c4ccc(C#N)cc4)C3)c(F)cc21 [Example 284, (3R)-3-((4-cyanobenzoyl)amino)-N-(3-(cyclopropylmethyl)-7-fluoro-1-isopropyl-2,4-dioxo-1,2,3,4-tetrahydroquinazolin-6-yl)piperidine-1-carboxamide] |
| 106% | 106% | 102% | CC(C)n1c(=O)n(CC2CC2)c(=O)c2cc(NC(=O)N3CCC[C@@H](N4Cc5ccc(Cl)cc5C4=O)C3)c(F)cc21 [Example 336, (3R)-3-(6-chloro-1-oxo-1,3-dihydro-2H-isoindol-2-yl)-N-(3-(cyclopropylmethyl)-7-fluoro-1-isopropyl-2,4-dioxo-1,2,3,4-tetrahydroquinazolin-6-yl)piperidine-1-carboxamide] |
| 101% | 105% | 101% | COC(=O)NCc1ccc(C(=O)N[C@@H]2CCCN(C(=O)Nc3cc4c(=O)n(CC5CC5)c(=O)n(C(C)C)c4cc3F)C2)cc1 [Example 321, methyl (4-(((3R)-1-((3-(cyclopropylmethyl)-7-fluoro-1-isopropyl-2,4-dioxo-1,2,3,4-tetrahydroquinazolin-6-yl)carbamoyl)piperidin-3-yl)carbamoyl)benzyl)carbamate] |
